The text below walks through data of PMC4820820, “CETSA screening identifies known and novel thymidylate synthase inhibitors and slow intracellular activation of 5-fluorouracil” (Nature Communications, 2016).

Structures are written as SMILES.

The experiment concerns the target TS (Homo sapiens, UniProt P04818). Briefly: Surface plasmon resonance. Also on record: His6 tag with TEV site (vector-encoded by pNIC28-Bsa4); made in house; host or cells: Rosetta BL21-DE3 Escherichia coli. Conditions: 200 μM dUMP, 20 nM to 10 μM compound; signal does not saturate. Type of experiment: binding. Here is the method:
A concentration series (20 nM to 10 μM) of CBK115334 was injected over the prepared surface for 60 s and allowed to dissociate for 60 s with a flow rate of 70 μl min^−1 at 25 °C. The assay buffer was 20 mM HEPES, 150 mM NaCl, pH 7.5 and 0.005% Tween-20 supplemented with 1% DMSO and 200 μM dUMP. Response data was processed using the BIAevaluation software. Responses were double referenced and solvent-corrected. The data sets were fitted to 1:1 steady-state model for determination of binding constants.

Sequence of TS (P04818 whole entry): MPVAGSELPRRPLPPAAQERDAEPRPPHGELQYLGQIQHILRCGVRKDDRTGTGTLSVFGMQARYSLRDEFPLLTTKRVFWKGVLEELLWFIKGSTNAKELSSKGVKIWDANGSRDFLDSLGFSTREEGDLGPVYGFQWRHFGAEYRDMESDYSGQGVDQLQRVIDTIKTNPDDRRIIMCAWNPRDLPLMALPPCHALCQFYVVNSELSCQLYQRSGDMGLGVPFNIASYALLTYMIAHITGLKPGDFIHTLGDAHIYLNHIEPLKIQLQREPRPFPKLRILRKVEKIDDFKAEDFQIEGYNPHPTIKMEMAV

Consider `Cc1cc(O)nc2sc(C(=O)c3ccccc3)c(N)c12` [CBK115334, 3-amino-2-benzoyl-4-methylthieno(2,3-b)pyridin-6-ol], for which the “binding to TS by surface plasmon resonance (steady state affinity)” value is listed as “low μM range”.
